Test results reported in US11033629B2, “Oral formulations of kappa opioid receptor agonists” (Cara Therapeutics, Inc., priority 2018, dated 2021).

Assay: Intravenous delivery of CR845 to canines (composite IV data from five studies, reference for bioavailability)
Conditions: dog, in vivo, average dose 0.029±0.029 mg/kg, ten kilogram dogs, thirty-six canines
Protocol: Each capsule of prototype formulation 1 contained: 1.6 mg spray dried CR845 in 90% Miglyol 812, 10% sodium caprate. Each capsule of prototype formulation 2 contained: 1.6 mg crystallized CR845 in 90% Miglyol 812, 10% sodium caprate. Each capsule of prototype formulation 3 contained: 1.6 mg spray dried CR845 in 90% Miglyol 812, 10% capric acid. Each capsule of prototype formulation 4 contained: 1.6 mg spray dried CR845 in 70% Miglyol 812 in 30% capric acid. Bioavailability (% f) is expressed as a percent of CR845 observed (calculated from the area under the curve: AUC) as compared with the total CR845 AUC observed after intravenous delivery of the same dose. Composite IV data from five separate studies with thirty-six canines was averaged and used for bioavailability calculations. […] The observed avg.

In the case of CC(C)C[C@@H](NC(=O)[C@@H](Cc1ccccc1)NC(=O)[C@H](N)Cc1ccccc1)C(=O)N[C@H](CCCCN)C(=O)N1CCC(N)(C(=O)O)CC1 [CR845, D-Phe-D-Phe-D-Leu-D-Lys-[ω(4-aminopiperidine-4-carboxylic acid)]-OH], the Cmax is reported as 163 ± 39.2 ng/mL.
